In publication PMC8279484 (Journal of Medicinal Chemistry, 2021):

How the values were obtained:
[1] = target: T1, ALX/FPR2 receptor (Homo sapiens, UniProt P25090); test: Intracellular calcium flux in FPR2+/Gαq+ stably transfected HEK-293; type: cell-based; details: ATP 1 μM; Wp 2 nM
T1 construct: host or cells: HEK-293, stably double-transfected FPR2+/Gαq+
T1 sequence (P25090 1-351): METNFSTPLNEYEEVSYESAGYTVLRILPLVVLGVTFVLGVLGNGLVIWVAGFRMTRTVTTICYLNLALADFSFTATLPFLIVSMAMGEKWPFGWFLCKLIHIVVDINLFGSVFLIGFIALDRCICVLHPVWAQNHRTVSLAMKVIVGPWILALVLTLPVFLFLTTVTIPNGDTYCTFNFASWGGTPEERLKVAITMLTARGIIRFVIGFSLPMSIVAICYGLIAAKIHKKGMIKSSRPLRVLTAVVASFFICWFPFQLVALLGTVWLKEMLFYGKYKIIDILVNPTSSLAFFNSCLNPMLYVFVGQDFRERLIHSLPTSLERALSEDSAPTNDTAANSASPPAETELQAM
Description: HEK-293-transfected and wt cell lines were cultured in Dulbecco’s modified Eagle’s medium (DMEM Glutamax, 4 mM L-glu and 4.50 g/L glucose—Gibco, Ireland) supplemented with heat-inactivated (30 min at 56C) 10% (v/v) FBS (Invitrogen, U.K.), 50 U penicillin, and 50 μg of streptomycin (Invitrogen, U.K.). As stably double-transfected FPR2^+/Gαq^+ HEK-293 cells were resistant to Geneticin and Hygromycin, these were used as selective antibiotics (500 and 100 μg/mL, respectively) to maintain the stable double transfection with the ALX/FPR2 receptor and the Gαq subunit coupled to it. Immediately prior to calcium measurement, fluorescently labeled cells were treated with 10^–11/–9/–7M LXA41 or sLXms using an injection system coupled to the fluorescence reader.
To explore the mechanism of action through which the sLXm lead compound exerts the effects seen here, its interaction with the ALX/FPR2 receptor was investigated and agonist-induced intracellular calcium transients were measured using an engineered cell line stably overexpressing the ALX/FPR2 receptor and the Gαq subunit coupled to it (Figure S6). Wild-type HEK cells were used as controls, to verify the specificity of the agonism toward ALX/FPR2, as previously reported.[36] Briefly, prior to cell plating, sterile 96-well plates (black-sided with optically clear glass flat bottoms) were PDL-coated overnight. Subsequently, 2 × 10^5 wild-type cells and overexpressed cells/well were cultured for 18 h in DMEM complete media (containing Ca^2+ and Mg^2+) to facilitate adherence prior to labeling with Fluo-4 dye. After 1 h of incubation at 37 °C with Fluo-4, cells were gently washed twice and placed in 100% Hanks’ balanced salt solution (HBSS; 37 °C) before reading the fluorescence (485/535 nm), using a spectrophotometer conjugated with an injection system (Clariostar BMG LABTECH plate reader), allowing addition to the cells of controls ([…], 2 nM Wp, a synthetic ALX/FPR2 agonist) or experimental treatments [10 pM, 1 nM, and 100 nM LXA41 or (R)-6].
During calcium flux measurement, the kinetic steps involved were the following: the baseline fluorescent signal was measured for 20 s, followed by 100 s immediately after agonist injection. Subsequently, 2% Triton-X-100 was added to lyse the cells (monitoring for 20 s the maximal release of calcium ions in the extracellular environment) and, finally, 25 mM tetraacetic acid (EGTA) was added to chelate calcium ions (monitoring for additional 20 s the minimal detection of calcium ions in the extracellular environment) (Figure S7).
(§1) The “coding” of the heat-map indicates the arbitrary criteria to assign points to each single PD component (efficacy = Imax or Emax; potency = IC50 or EC50; slope = HS) to generate a final (aggregate) relative PD score. If a single PD component was greater than the reference level (x > 1), then the single-component relative score was arbitrarily set to +1 (light green) or +2 (dark green). If a single PD component was equal to the reference level (x = 1), then the single-component relative score was arbitrarily set to 0 (gray). If a single PD component was smaller than the reference level (x < 1), then the single-component relative score was arbitrarily set to −1 (light red) or −2 (dark red). If the curve of a single PD component was best fitting to a flat line (x = 0), then the single-component relative score was arbitrarily set to −4 (purple) (Table S1).

[2] = test system: wild-type HEK-293 cells; test: Intracellular calcium flux in wild-type HEK-293 (specificity control); type: cell-based, human
Description: To explore the mechanism of action through which the sLXm lead compound exerts the effects seen here, its interaction with the ALX/FPR2 receptor was investigated and agonist-induced intracellular calcium transients were measured using an engineered cell line stably overexpressing the ALX/FPR2 receptor and the Gαq subunit coupled to it (Figure S6). Wild-type HEK cells were used as controls, to verify the specificity of the agonism toward ALX/FPR2, as previously reported.[36] Briefly, prior to cell plating, sterile 96-well plates (black-sided with optically clear glass flat bottoms) were PDL-coated overnight. Subsequently, 2 × 10^5 wild-type cells and overexpressed cells/well were cultured for 18 h in DMEM complete media (containing Ca^2+ and Mg^2+) to facilitate adherence prior to labeling with Fluo-4 dye. After 1 h of incubation at 37 °C with Fluo-4, cells were gently washed twice and placed in 100% Hanks’ balanced salt solution (HBSS; 37 °C) before reading the fluorescence (485/535 nm), using a spectrophotometer conjugated with an injection system (Clariostar BMG LABTECH plate reader), allowing addition to the cells of controls (1 mM ATP, a GPCR purinergic agonist, 2 nM Wp, a synthetic ALX/FPR2 agonist) or experimental treatments [10 pM, 1 nM, and 100 nM LXA41 or (R)-6].

[3] = test system: IL-6; test: LPS-induced IL-6 release from THP-1 Lucia monocytes (multiplex electrochemiluminescence); type: cell-based, human; details: Dex 1 μM; 2 1 pM; LPS 50 ng/mL, 24 h
Description: (§2) LXA41 and all of the tested sLXms were dissolved in ethanol and further diluted in a culture medium (final ethanol concentration 0.1%; equivalent concentrations were used as the vehicle control). Prior to in vitro experiments, THP-1-Lucia NF-κB cells were harvested and plated at 1 × 10^5 cells/well on 96-well plates and left to settle in the incubator at 37 °C, 95% humidity, and 5% CO2, in 0.1% FBS-containing media, pretreated for 30 min with increasing doses of LXA41, sLXms (from 10^–12 to 10^–6 M), or appropriate controls, followed by stimulation with 50 ng/mL LPS for 24 h. Untreated (Unt) or vehicle-treated (Veh) cells were used as negative controls; 1 pM (1R)-5, the (1R)-epimer of the benzo-mimetic, was used as a positive control for any aromatic mimetic; and, finally, we compared the observed effects to the conventional glucocorticoid dexamethasone (Dex) treatment, at 1 μM.
(§3) After 24 h of exposure to LXA41, sLXms, or vehicle, followed by LPS stimulation (50 ng/mL), as described above, THP-1-Lucia NF-κB-cell supernatants were collected and cleared by centrifugation. Concentrations of IFN-γ, IL-1β, IL-6, IL-8, IL-10, IL-12p70, and TNF-α in culture supernatants were assessed by electro-chemi-luminescent detection, using a commercially available human 96-well plate “multiplex” (several analytes in the same well) kit for tissue culture samples, according to the manufacturers’ guidelines.
as §1

[4] = test system: IL-1β; test: LPS-induced IL-1β release from THP-1 Lucia monocytes (multiplex electrochemiluminescence); type: cell-based, human; details: Dex 1 μM; 2 1 pM; LPS 50 ng/mL, 24 h
Description: as §2, §3, §1

[5] = test system: IFNγ; test: LPS-induced IFNγ release from THP-1 Lucia monocytes (multiplex electrochemiluminescence); type: cell-based, human; details: Dex 1 μM; 2 1 pM; LPS 50 ng/mL, 24 h
Description: as §2, §3, §1

[6] = test system: THP-1 LUCIA monocytes; test: Intrinsic cytotoxicity: LDH release without LPS; type: cell-based, human; details: absence of LPS, 24 h; controls Dex 1 μM, 2 1 pM, 5 1 pM
Description: (§4) We investigated the potential cytotoxicity of all candidate sLXms by assaying LDH release.[50] The response to LPS was arbitrarily set to 100%, and values were expressed relative to this. As previously reported by others, LPS provokes LDH release.[51] […] Ultimately, untreated cells defined the spontaneous cell release thresholds.
(§5) Lactate dehydrogenase (LDH) was assayed in cell supernatants to investigate possible cytotoxicity of the lead compound. LDH is rapidly released into the culture medium after disruption of the plasma membrane.[67],[69] After 24 h of exposure to sLXms, vehicle, or controls, followed by LPS stimulation, as described above, THP-1-Lucia NF-κB-cell supernatants were collected and LDH was assayed. Cytotoxicity was evaluated relative to vehicle controls. Maximum releasable LDH was determined in cells lysed with 2% Triton-X-100 (Sigma-Aldrich, Ireland). LDH levels were assessed by reading the absorbance at 490 nm (protein) and 690 nm (background noise), using a spectrophotometer (SPECTRAMAX M2, Molecular Devices (U.K.) Limited).

[7] = test system: NF-κB; set-up: method as in PMID 30213823; details: LXA4 1 0.1 nM; 2 1 nM; cited from earlier work
[8] = test system: IL-8; test: LPS-induced IL-8 release from THP-1 Lucia monocytes (multiplex electrochemiluminescence); type: cell-based, human; details: Dex 1 μM; 1 1 nM; (R)-6 concentration not given
Description: as §2, §3

[9] = test system: THP-1 LUCIA monocytes; test: Extrinsic cytotoxicity: LDH release after LPS challenge; type: cell-based, human; details: Dex 1 μM
Description: as §4, §5

[10] = test system: C57BL/6J mice; test: Murine zymosan-induced peritonitis; type: in vivo, mouse
Description: Male C57BL/6J mice of 9 weeks of age were purchased from Charles River (Kent, U.K.) and were housed in a specific pathogen-free facility in individually ventilated and filtered cages under positive pressure. Peritonitis was induced in mice by ip injection of zymosan (purchased from Sigma-Aldrich; 1 mg per mouse in 0.5 mL of phosphate-buffered saline (PBS)).[73] Mice were treated with dexamethasone (1 μg/g) purchased from Sigma-Aldrich 1 h prior to zymosan injection or (R)-6 (2 and 6 ng/g) (200 μL IP) 30 min prior to zymosan injection. Peritoneal cells were collected by lavage 4 h after injection of zymosan. The local Animal Use and Care Committee and The UK Home Office approved the animal experiments in accordance with the derivatives of both The Home Office Guidance on the Operation of Animals (Scientific Procedures) Act 1986 and The Guide for the Care and Use of Laboratory Animals of the National Research Council.
Surface marker expression on peritoneal cells was assessed by flow cytometry with data collection on a FACSCalibur (Becton Dickinson). Data were analyzed with FlowJo analysis software (Treestar Inc.). Cells were stained with AlexaFluor488 conjugated anti-F4/80 (clone BM8; eBioscience); APC conjugated anti-CD11b (clone M1/70; eBioscience) and Pacific blue conjugated anti-Ly6G (clone 1A8; BioLegend) antibodies. Prior to surface staining, peritoneal cells were counted manually (Neubauer chamber) with Turks solution. Using appropriate fluorescence minus one (FMO) controls, quadrants were drawn, and data were plotted on logarithmic-scale density- or dot-plots.

Row | Compound | Ca^2+ mobilization by positive controls [1] | Ca^2+ mobilization in wild-type HEK-293 cells [2] | Imax, IL-6 release, single-point controls [3] | Imax, IL-1β release, single-point controls [4] | attenuation of IFNγ release, single-point controls [5] | intrinsic LDH release versus vehicle / spontaneous cell release [6] | effect on TNF-α-stimulated NF-κB activity [7] | enhancement of LPS-induced secretion of IL-8 [8] | effect on LPS-induced LDH [9] | Total no of PMNs ([10]; Dex ip (1 mg/kg in Figure 9) + zymosan 40 mg/kg, n = 5 mice) | relative proportion of PMNs and monocytes/macrophages (flow cytometry) ([10]; peritoneal cells, data not shown)
1 | Nc1ncnc2c1ncn2[C@@H]1O[C@H](COP(=O)(O)OP(=O)(O)OP(=O)(O)O)[C@@H](O)[C@H]1O [ATP] | Ca^2+ mobilization was observed | stimulated Ca^2+ mobilization |  |  |  |  |  |  |  |  | 
2 | CCCCC[C@@H](O)c1ccccc1/C=C/[C@@H](O)[C@@H](O)CCCC(=O)OC [Compound 2, benzo-LXA4, reference compound] |  |  | 42 ± 3% | 59 ± 4% | did not significantly alter | did not display any significant cytotoxic effect | reduced TNF-α-stimulated NF-κB activity |  |  |  | 
3 | C[C@@H]1C[C@H]2[C@@H]3CCC4=CC(=O)C=C[C@]4(C)[C@@]3(F)[C@@H](O)C[C@]2(C)[C@@]1(O)C(=O)CO [Dex, dexamethasone, reference compound] |  |  | 98 ± 1% | 86 ± 6% | 56 ± 2% | did not display any significant cytotoxic effect |  | 2.5 fold | did not reduce LPS-induced LDH | 2.4 ± 0.7 × 10^6/mL | not to be altered
4 | W-peptide [Wp] | Ca^2+ mobilization was observed | without effect |  |  |  |  |  |  |  |  | 
